Among the data in patent US9708308B2, “Factor IXa inhibitors” (Merck Sharp & Dohme Corp., priority 2012, dated 2017) are IC50 values, retold here.

The test has as its target Factor IXa (Homo sapiens, UniProt P00740). The test is described as follows: Determination of inhibitory activity against Factor IXa (cleavage of fluorescent peptide substrate). In kind it is biochemical. As to conditions: cleavage of fluorescent peptide CH3SO2-D-CHG-Gly-Arg-AFC, release of AFC; read-out: FIXa IC50. The source says:
• (R)—N-(3-aminobenzo[d]isoxazol-6-yl)-2-hydroxy-2-((R)-4-(1-(6-methoxypyridazin-4-yl)-1H-pyrazol-3-yl)-6,6-dimethyl-3-oxomorpholin-2-yl)acetamide. Determination of Inhibitory Activity Against Factor IXa
Formation of a clot to stem bleeding at a site of blood vessel injury involves the coordinated activity of a group of plasma proteins that initiate and propagate fibrin formation and subsequently protect fibrin from premature degradation. Factor IX is a key component of the plasma system that forms a fibrin clot at a site of vascular injury. The activity of Factor IXa is measured by monitoring the cleavage of the fluorescent peptide, CH3SO2-D-CHG-Gly-Arg-AFC.AcOH (“CHG” is cyclohexyl-glycine and “AFC” is trifluoro aminomethyl coumarin). Factor IXa cleaves the amide bond between Arg and AFC, thereby releasing the AFC fluorophore. The free AFC can be detected with a fluorescence detector at an excitation wavelength of 405 nm and emission wavelength of 510 nm.

Chain of Factor IXa (P00740 227-461 limits assumed): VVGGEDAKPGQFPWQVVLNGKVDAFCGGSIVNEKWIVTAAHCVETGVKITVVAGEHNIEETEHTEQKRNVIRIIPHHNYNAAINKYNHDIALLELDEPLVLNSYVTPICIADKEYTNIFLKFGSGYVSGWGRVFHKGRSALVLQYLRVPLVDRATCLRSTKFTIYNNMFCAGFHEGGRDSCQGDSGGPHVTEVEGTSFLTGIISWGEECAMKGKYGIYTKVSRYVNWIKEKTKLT
Chain of Factor IXa (P00740 47-191 partner limits assumed): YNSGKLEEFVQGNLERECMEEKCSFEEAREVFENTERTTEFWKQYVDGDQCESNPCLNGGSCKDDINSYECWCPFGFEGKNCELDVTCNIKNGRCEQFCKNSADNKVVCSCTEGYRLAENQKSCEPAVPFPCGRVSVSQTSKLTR

For `C[C@H]1CN(c2ccn(-c3ccnc(C#N)c3)n2)C(=O)[C@@H]([C@@H](O)C(=O)Nc2ccc3c(N)noc3c2)O1` [Example 164, (R)—N-(3-aminobenzo[d]isoxazol-6-yl)-2-((2R,6S)-4-(1-(2-cyanopyridin-4-yl)-1H-pyrazol-3-yl)-6-methyl-3-oxomorpholin-2-yl)-2-hydroxyacetamide], the IC50 is 0.00568 µM.
With `CC1(C)CN(c2ccn(-c3cnnc(C#N)c3)n2)C(=O)[C@@H]([C@@H](O)C(=O)Nc2ccc3c(N)noc3c2)O1` [Example 156, (R)—N-(3-Aminobenzo[d]isoxazol-6-yl)-2-((R)-4-(1-(6-cyanopyridazin-4-yl)-1H-pyrazol-3-yl)-6,6-dimethyl-3-oxomorpholin-2-yl)-2-hydroxyacetamide] the figure was 0.00168 µM; with `C[C@H]1CN(c2ccn(-c3ccnc(C(F)(F)F)c3)n2)C(=O)[C@@H]([C@@H](O)C(=O)Nc2ccc3c(N)noc3c2)O1` [Example 169, (R)—N-(3-aminobenzo[d]isoxazol-6-yl)-2-hydroxy-2-((2R,6S)-6-methyl-3-oxo-4-(1-(2-(trifluoromethyl)pyridin-4-yl)-1H-pyrazol-3-yl)morpholin-2-yl)acetamide], 0.00899 µM; with `C[C@]1([C@@H](O)C(=O)Nc2cc(Cl)c3c(N)noc3c2)OCCN(c2ccn(-c3ccc(S(C)(=O)=O)cc3)n2)C1=O` [Example 127, (R)—N-(3-amino-4-chlorobenzo[d]isoxazol-6-yl)-2-hydroxy-2-((R)-2-methyl-4-(1-(4-(methylsulfonyl)phenyl)-1H-pyrazol-3-yl)-3-oxomorpholin-2-yl)acetamide], 0.746 µM.
With `C[C@]1([C@@H](O)C(=O)Nc2cc(Cl)c3c(N)noc3c2)OCCN(c2ccn(-c3ccncc3)n2)C1=O` [Example 128, (R)—N-(3-amino-4-chlorobenzo[d]isoxazol-6-yl)-2-hydroxy-2-((R)-2-methyl-3-oxo-4-(1-(pyridin-4-yl)-1H-pyrazol-3-yl)morpholin-2-yl)acetamide] the figure was 0.224 µM.
In the case of `C[C@]1([C@@H](O)C(=O)Nc2ccc3c(N)noc3c2)OCCN(c2cccc(-c3cnoc3)n2)C1=O` [Example 114, (R)—N-(3-aminobenzo[d]isoxazol-6-yl)-2-hydroxy-2-((R)-4-(6-(isoxazol-4-yl)pyridin-2-yl)-2-methyl-3-oxomorpholin-2-yl)acetamide], the IC50 is 0.0453 µM.
As to `C[C@@H]1CN(c2ccn(-c3ccnc(C#N)c3)n2)C(=O)[C@@H]([C@@H](O)C(=O)Nc2ccc3c(N)noc3c2)O1` [Example 165, (R)—N-(3-aminobenzo[d]isoxazol-6-yl)-2-((2R,6R)-4-(1-(2-cyanopyridin-4-yl)-1H-pyrazol-3-yl)-6-methyl-3-oxomorpholin-2-yl)-2-hydroxyacetamide], the IC50 is 0.00198 µM.
In the case of `C[C@](O)(C(=O)Nc1cc(F)c2c(N)noc2c1)[C@H]1OCCN(c2ccn(-c3cnnc(N4CCC4)c3)n2)C1=O` [Example 136, (R)—N-(3-amino-4-fluorobenzo[d]isoxazol-6-yl)-2-((R)-4-(1-(6-(azetidin-1-yl)pyridazin-4-yl)-1H-pyrazol-3-yl)-3-oxomorpholin-2-yl)-2-hydroxypropanamide], the concentration for half-maximal inhibition (IC50) is 0.0532 µM.
On to `C[C@](O)(C(=O)Nc1cc(F)c2c(N)noc2c1)[C@H]1OCCN(c2ccn(-c3ccnc(C(F)(F)F)c3)n2)C1=O` [Example 131, (R)—N-(3-amino-4-fluorobenzo[d]isoxazol-6-yl)-2-hydroxy-2-((R)-3-oxo-4-(1-(2-(trifluoromethyl)pyridin-4-yl)-1H-pyrazol-3-yl)morpholin-2-yl)propanamide], for which the 50% inhibitory concentration (IC50) worked out at 0.0952 µM.
For the molecule `COc1cc(-n2ccc(N3CCO[C@H]([C@@](C)(O)C(=O)Nc4ccc5c(N)noc5c4)C3=O)n2)cnn1` [Example 39, (R)—N-(3-aminobenzo[d]isoxazol-6-yl)-2-hydroxy-2-((R)-4-(1-(6-methoxypyridazin-4-yl)-1H-pyrazol-3-yl)-3-oxomorpholin-2-yl)propanamide], the half-maximal inhibitory concentration (IC50) was 0.16 µM.
Take `C[C@]1([C@@H](O)C(=O)Nc2ccc3c(N)noc3c2)OCCN(c2cccc(-c3ccc(C(=O)O)cc3)n2)C1=O` [Example 110, 4-(6-((R)-2-((R)-2-((3-aminobenzo[d]isoxazol-6-yl)amino)-1-hydroxy-2-oxoethyl)-2-methyl-3-oxomorpholino)pyridin-2-yl)benzoic acid]: the IC50 was found to be 0.455 µM.
As to `C[C@](O)(C(=O)Nc1ccc2c(N)noc2c1)[C@H]1OCCN(c2ccn(-c3ccnc(C(F)(F)F)n3)n2)C1=O` [Example 53, (R)—N-(3-aminobenzo[d]isoxazol-6-yl)-2-hydroxy-2-((R)-3-oxo-4-(1-(2-(trifluoromethyl)pyrimidin-4-yl)-1H-pyrazol-3-yl)morpholin-2-yl)propanamide], the IC50 stood at 0.0767 µM.
Turning to `C[C@](O)(C(=O)Nc1cc(F)c2c(N)noc2c1)[C@H]1OCCN(c2ccn(-c3cnnc(C#N)c3)n2)C1=O` [Example 138, (R)—N-(3-amino-4-fluorobenzo[d]isoxazol-6-yl)-2-((R)-4-(1-(6-cyanopyridazin-4-yl)-1H-pyrazol-3-yl)-3-oxomorpholin-2-yl)-2-hydroxypropanamide], the half-inhibitory concentration (IC50) amounted to 0.00711 µM.
With `CC(C)(O)c1cccc(N2CCO[C@H]([C@@](C)(O)C(=O)Nc3ccc4c(N)noc4c3)C2=O)n1` [Example 65, (R)—N-(3-aminobenzo[d]isoxazol-6-yl)-2-hydroxy-2-((R)-4-(6-(2-hydroxypropan-2-yl)pyridin-2-yl)-3-oxomorpholin-2-yl)propanamide] the figure was 0.468 µM.
For the molecule `CN(C)c1nccc(-n2ccc(N3CCO[C@H]([C@@](C)(O)C(=O)Nc4ccc5c(N)noc5c4)C3=O)n2)n1` [Example 52, (R)—N-(3-aminobenzo[d]isoxazol-6-yl)-2-((R)-4-(1-(2-(dimethylamino)pyrimidin-4-yl)-1H-pyrazol-3-yl)-3-oxomorpholin-2-yl)-2-Hydroxypropanamide], the half-maximal inhibitory concentration (IC50) stood at 0.102 µM.
For the molecule `C[C@](O)(C(=O)Nc1ccc2c(N)noc2c1)[C@H]1OCCN(c2ccn(-c3cnnc(C(F)(F)F)c3)n2)C1=O` [Example 46, (R)—N-(3-aminobenzo[d]isoxazol-6-yl)-2-hydroxy-2-((R)-3-oxo-4-(1-(6-(trifluoromethyl)pyridazin-4-yl)-1H-pyrazol-3-yl)morpholin-2-yl)propanamide], the 50% inhibitory concentration (IC50) is 0.00141 µM.
For the molecule `COc1nccc(-n2ccc(N3CCO[C@](C)([C@@H](O)C(=O)Nc4ccc5c(N)noc5c4)C3=O)n2)n1` [Example 103, (R)—N-(3-aminobenzo[d]isoxazol-6-yl)-2-hydroxy-2-((R)-4-(1-(2-methoxypyrimidin-4-yl)-1H-pyrazol-3-yl)-2-methyl-3-oxomorpholin-2-yl)acetamide], the IC50 stood at 0.0108 µM.
For `CC(C)Oc1cc(-n2ccc(N3CCO[C@H]([C@@](C)(O)C(=O)Nc4ccc5c(N)noc5c4)C3=O)n2)cnn1` [Example 41, (R)—N-(3-aminobenzo[d]isoxazol-6-yl)-2-hydroxy-2-((R)-4-(1-(6-isopropoxypyridazin-4-yl)-1H-pyrazol-3-yl)-3-oxomorpholin-2-yl)propanamide], the IC50 is 0.0578 µM.
With `COc1cc(-n2ccc(N3CCO[C@H]([C@@](C)(O)C(=O)Nc4cc(F)c5c(N)noc5c4)C3=O)n2)cnn1` [Example 139, (R)—N-(3-amino-4-fluorobenzo[d]isoxazol-6-yl)-2-hydroxy-2-((R)-4-(1-(6-methoxypyridazin-4-yl)-1H-pyrazol-3-yl)-3-oxomorpholin-2-yl)propanamide] the figure was 0.014 µM; with `COc1ncc(-n2ccc(N3CCO[C@](C)([C@@H](O)C(=O)Nc4ccc5c(N)noc5c4)C3=O)n2)cn1` [Example 101, (R)—N-(3-aminobenzo[d]isoxazol-6-yl)-2-hydroxy-2-((R)-4-(1-(2-methoxypyrimidin-5-yl)-1H-pyrazol-3-yl)-2-methyl-3-oxomorpholin-2-yl)acetamide], 0.635 µM.
Regarding `C[C@](O)(C(=O)Nc1cc(F)c2c(N)noc2c1)[C@H]1OCCN(c2ccn(-c3ccnnc3)n2)C1=O` [Example 135, (R)—N-(3-amino-4-fluorobenzo[d]isoxazol-6-yl)-2-hydroxy-2-((R)-3-oxo-4-(1-(pyridazin-4-yl)-1H-pyrazol-3-yl)morpholin-2-yl)propanamide], the IC50 turned out to be 0.0102 µM.
On to `C[C@]1([C@@H](O)C(=O)Nc2ccc(CN)cc2)OCCN(c2ccn(-c3ccncc3)n2)C1=O` [Example 152, (R)—N-(4-(aminomethyl)phenyl)-2-hydroxy-2-((R)-2-methyl-3-oxo-4-(1-(pyridin-4-yl)-1H-pyrazol-3-yl)morpholin-2-yl)acetamide], for which the IC50 amounted to 0.00969 µM.
Regarding `C[C@]1([C@@H](O)C(=O)Nc2ccc3c(N)noc3c2)OCCN(c2cccc(-c3ccc(C(F)(F)F)cc3C(=O)O)n2)C1=O` [Example 111, 2-(6-((R)-2-((R)-2-((3-aminobenzo[d]isoxazol-6-yl)amino)-1-hydroxy-2-oxoethyl)-2-methyl-3-oxomorpholino)pyridin-2-yl)-5-(trifluoromethyl)benzoic acid], the IC50 amounted to 0.972 µM.
For `C[C@]1([C@@H](O)C(=O)Nc2ccc3c(N)noc3c2)OCCN(c2ccc3cc(C(F)(F)F)ncc3n2)C1=O` [Example 118, (R)—N-(3-aminobenzo[d]isoxazol-6-yl)-2-hydroxy-2-((R)-2-methyl-3-oxo-4-(6-(trifluoromethyl)-1,7-naphthyridin-2-yl)morpholin-2-yl)acetamide], the half-inhibitory concentration (IC50) came out at 0.101 µM.
As for `C[C@](O)(C(=O)Nc1cc(Cl)c2c(N)noc2c1)[C@H]1OCCN(c2ccn(-c3ccncc3)n2)C1=O` [Example 119, (R)—N-(3-amino-4-chlorobenzo[d]isoxazol-6-yl)-2-hydroxy-2-((R)-3-oxo-4-(1-(pyridin-4-yl)-1H-pyrazol-3-yl)morpholin-2-yl)propanamide], the IC50 was 0.224 µM.

Usually IC50 stands for the concentration that gives 50% inhibition.
